Experimental data reported in US6624140B1, “Synthetic peptides with antimicrobial and endotoxin neutralizing properties for management of the sepsis syndrome” (Academisch Ziekenhuis Bij de Universiteit van Amsterdam …, priority 1997, dated 2003).
No end group written: not given here.

What was measured:
[1] = Turbidity assay of endotoxin complexation; assay type: binding, Escherichia coli; details: for avidity order (degree of insoluble peptide-endotoxin complex formation): 2-fold molar excess of synthetic peptide
Experimental: FIG. 2. Endotoxin complexation activity of the synthetic peptides. Peptides at concentrations of 100 to 600 μg/ml were incubated with E. coli D31m4 Re or J5 LPS at 100 μg/ml in a total volume of 100 μl pyrogen-free phosphate buffered saline (PBS) in plastic ELISA microtiter plates for 30 min at 23° C. The turbidity produced by the insoluble peptide-endotoxin complexes was measured at 340 nm. The values represent the mean of three determinations and were corrected for controls containing the same concentrations of endotoxin or peptide.
Double-immunodiffusion of the peptides of the invention against ‘rough’ R-type E. coli D31m4 Re-LPS (List Biological Laboratories Inc., Calif.) or the structurally more complex ‘smooth’ S-type E. coli 0111:B4 LPS (Sigma Chemical Co., Rockford, Ill.) was performed in 0.8% (w/v) agarose containing 50 mM Tris and 0.1% (w/v) Triton X100, pH 7.5. for 16 h at 20° C. PmB and BPI(85-102) were included as control compounds for comparative purposes. The microprecipitates formed were visualized by Coommassie brilliant blue staining. […] Since the amount of precipitate formed is a function of valency, the peptides of the invention appear to be capable of a high degree of intermolecular binding of LPS molecules via the Lipid A moieties. […] A turbidity assay was employed for a direct comparison of the endotoxin-binding activity or avidity of selected synthetic peptides according to the invention using the ‘rough’ serotypes E. coli Re or Rc (J5) LPS. PmB and BPI(85-102) were included as control compounds for comparative purposes. The degree of precipitation of endotoxin by the synthetic peptides according to the invention was determined by measurement of the optical density of insoluble complexes formed at 340 nm (FIG. 2). In most instances optimal complexation of Re or J5 LPS by the synthetic peptides of the invention was evident at a molar ratio of peptide to endotoxin of 1 to 2. The control BPI(85-102) peptide was required at a 4-fold molar excess for approximately the same degree of complexation. […] There was no significant difference between complexation of Re or the structurally more complex J5-LPS by the synthetic peptides. […] The Lipid A binding affinity of the synthetic peptides were directly compared in a solid-state endotoxin-binding assay. Binding characteristics of biotinylated derivatives of the synthetic peptides BP1, BP2, BP2.1 and the control peptide BPI(85-102) were determined on ELISA microtiter plates coated with E. coli D31m4 Lipid A. Specific binding of the biotinylated peptides to the immobilized Lipid A was determined by development with Streptavidin-HRP and 3, 5, 3′, 5′ tetra-methylbenzidine (TMB) substrate and expressed as the corrected optical density at 450 nm. […] The affinity of the novel synthetic peptide BP2 for endotoxin of increasing complexity as well as the effect of plasma on binding was examined with the use of the ELISA microplate assay.

[2] = tested on: IL-6 inducing ability of E. coli 0111:B4 LPS; assay: Effect of heparin on neutralization of IL-6 inducing ability of LPS; assay type: cell-based, human; details: for reduction of LPS neutralizing efficacy by heparin: same heparin concentration (0.4 U/ml)
Experimental: FIG. 10. Effect of heparin on the efficacy of neutralization of the IL-6 inducing ability of E. coli 0111:B4 LPS by synthetic peptide or Polymyxin B in whole blood diluted 1 in 10. Synthetic peptides at concentrations of 2 μg/ml or PmB at 1 μg/ml was pre-incubated for 30 min at 37° C. with E. coli 0111:B4 LPS at 1 ng/ml in RPMI medium containing heparin in the concentration range of 0.1 to 100 I.U/ml. The residual cytokine inducing ability of the treated endotoxin was determined in diluted whole blood containing heparin at 2 IU/ml after incubation for 16 h at 37° C. Each value is the mean of triplicate determinations corrected for background. Controls contained only LPS.
The endotoxin neutralizing activities of the synthetic peptides of the invention were evaluated by investigating the effect on LPS-stimulated release of the pro-inflammatory cytokines, tumor necrosis factor alpha (TNF-α), interleukin-6 (IL-6) or interleukin-8 (IL-8) in a well characterized in vitro human whole blood bioassay system. In one series of experiments, dilutions of E. coli 0111:B4 LPS from 0.2 to 1 ng/ml were pre-incubated with synthetic peptides at 10 μg/ml concentrations in RPMI medium for 30 min at 20° C. and added to diluted whole blood. Cytokine concentrations in the supernatants were determined after further incubation for 16 h at 37° C. in the presence of 5% CO2 by specific and sensitive ELISA kits (CLB, Amsterdam, The Netherlands). In another series of experiments, the effects of synthetic peptides at concentrations of 2,5, 5 and 10 μg/ml on IL-6 induction by 1 ng/ml 0111:B4 LPS was examined after simultaneous addition of synthetic peptide and LPS to diluted whole blood. […] The control peptide BPI(85-102) was ineffective in reducing cytokine production under these conditions even at a 4-fold higher concentration. This probably reflects the differences in binding affinity for Lipid A of BP1 and BP2 compared with the BPI(85-102) peptide of approximately 5 and 10-fold, respectively. An additional factor which may have influenced binding of the control peptide to endotoxin is the presence of heparin employed as an anti-coagulant at a concentration of […] in the assay system. […] On this basis, it was predicted that the extent of reduction of endotoxin neutralizing efficacy would be a function of the differences in affinity between peptides for endotoxin and heparin. To verify this hypothesis, a series of experiments to determine the effect of increasing heparin concentrations on the efficacy of endotoxin neutralization during pre-incubation of synthetic peptide and E. coli 0111:B4 LPS were performed. FIG. 10 illustrates a dose-dependent suppression of endotoxin neutralizing activity of the synthetic peptides by heparin as exemplified by a reduction of IL-6 inhibition. […]

Substance	avidity order (degree of insoluble peptide-endotoxin complex formation) [1]	molar excess of heparin with respect to LPS for 50% competitive inhibition [2]	reduction of LPS neutralizing efficacy by heparin [2] [%]	molar excess required for approximately the same degree of complexation ([1]; Re or J5 LPS) [fold]
GKWKLFKKAFKKFLKILAC-OH [BP2, Gly-Lys-Trp-Lys-Leu-Phe-Lys-Lys-Ala-Phe-Lys-Lys-Phe-Leu-Lys-Ile-Leu-Ala-Cys]	BP2.1>BP2.2>BP2>BP1>PmB >BPI(85-102)	approximately 10,000 fold	–	–
GRLRKKWKAFKKFLKILAC [BP1]	BP2.1>BP2.2>BP2>BP1>PmB >BPI(85-102)	–	75	–
Ile-Lys-Ile-Ser-Gly-Lys-Trp-Lys-Ala-Gin-Lys-Arg-Phe-Leu-Lys-Met-Ser-Gly-(Cys) (IKISGKWKAQKRFLKMSGC; listed as Homo sapiens) [BPI(85-102), reference compound]	BP2.1>BP2.2>BP2>BP1>PmB >BPI(85-102)	–	80	4
